Read-outs that look alike come from different tables or passages of the source.

For 15 molecules, IC50 and EC50 results are on record in patent US5545640A, “Protease inhibiting succinic acid derivatives” (Bio-Mega/Boehringer Ingeleheim Research Inc., priority 1995, dated 1996).

In one assay the target is T1, HIV protease (Human immunodeficiency virus type 1 group M subtype B, UniProt P04585).
T1 construct: an HIV-encoded enzyme known as HIV protease
Kind of assay: biochemical. Particulars: read-out: IC50 (concentration causing 50% inhibition of HIV protease). The source says: The procedure is based on the capacity of the test compound to inhibit enzymatic cleavage by HIV protease of a decapeptide (the substrate) having an amino acid sequence which includes a known HIV protease cleavage site of a HIV polyprotein; see H. G. Krausslich et al., Proc. Natl. Acad. Sci. USA, 86, 807 (1989).
Anderson, S. Rakhit and C. Yoakim in the European patent application 443 560, published Aug. 28, 1991.

In assay [1] the test system is HIV (H9/HTLV-IIIB stock) in C8166 cells. Kind of assay: Cell culture assay: inhibition of syncytia formation in HIV-infected C8166 cells (antiviral, anti-HIV effect). The assay is classed as cell-based, HIV (HTLV-IIIB); human T4 cell line. Particulars: Human immunodeficiency virus 1; C8166 cells; H9/HTLV-IIIB, 50 times TCID50; 72 h, 37°; read-out: EC50 (concentration causing 50% inhibition of syncytia formation). The source says:
Typical of such procedures are those described by S. Harada and N. Yamamoto, Jpn. J. Cancer Res. (Gann), 76, 432 (1985), and S. Harada et al., Science, 229, 563 (1985). An assay based on the latter procedures is described in the examples hereinafter.
In addition, Tables 1 to 8 list the results for exemplified compounds of formula 1 when assayed for antiviral (anti-HIV) effects according to the following protocol which is based on a cell culture assay previously described by Harada et al., supra. Transformed cells are used because of the rapidity with which HIV will replicate in the cells.
1. The test compound is dissolved in dimethylsulfoxide to a concentration of 5 mg/mL. The resultant solution .can be stored at 4° until use.
2. The resultant solution is diluted in RPMI 1640 (Gibco Laboratories, St. Lawrence, Mass., USA) to four times (4×) the final concentration which is to be tested. Once diluted in RPMI 1640, the solution is used in the cell culture assay within 4 h.
3. The latter solution (50 μL) is added to triplicate wells of a 96 well flat bottomed microtiter plate. RPMI (50 μL) also is added to control wells.
4. C8166 cells (5×10^4) in 50 μL of HEPES-buffered RPMI 1640 (pH=7.2), 10% heat inactivated fetal calf serum (FCS), […] gentamicin (complete media) are added to all wells.
5. Fifty times TCID50 of H9/HTLV-IIIB stock (stored in liquid nitrogen as cell culture supernatant in 50% FCS) in 100 μL of complete media is added to all wells. The infectious titer of the virus stocks is as previously determined by end point dilution on C8166 cells. The titer of stocks are stable for 6-12 months when stored at -193°.
6. Microtiter plates are then placed on level shelves of a 37°, 5% CO2 humidified incubator for 72 h.
7. Plates are then removed and centers of syncytia are counted in each well by low power phase contrast light microscopy. […] Control wells should have between 25 and 75 centers of syncytia per well.
8. Percent inhibition of syncytia formation is calculated by the formula: [formula]
The concentration of the test compound which causes a 50% inhibition of syncytia formation, i.e. the EC50, is determined by using the technique of serial dilution of the working solution at step 3 and graphically plotting the observed percent inhibition of syncytia formation against the various concentrations of the test compound.
In the following tables, assay results are listed for the exemplified compounds from the aforementioned recombinant HIV protease HPLC assay under the heading IC50 (nM) and from the cell culture assay under the heading EC50 (nM). Note that for some of the compounds listed in tables, the EC50 's have not been determined (ND).

Setting [2] is: recombinant HIV protease, decapeptide substrate, HPLC assay.

In the case of `CCC(CC)NC(=O)C[C@@H](C(=O)NC[C@@H](O)[C@H](Cc1ccccc1)NC(=O)[C@H](CC(N)=O)NC(=O)c1cc2ccccc2n1C)C(C)(C)C` [Entry 11], the IC50 on HIV protease (setting [2]) came out at 14 nM. For the same molecule, in assay [1], the EC50 is 660 nM.
As to `CCC(CC)NC(=O)C[C@@H](C(=O)NC[C@@H](O)[C@H](Cc1ccccc1)NC(=O)[C@@H](NC(=O)c1ccc2ccccc2n1)[C@@H](C)O)C(C)(C)C` [Entry 23, N^1-(1-Ethylpropyl)-N^4 -{3(S)-{[N-(2-quinolylcarbonyl)threonyl]amino}-2(R)-hydroxy-4-phenylbutyl}-3(R)-tert-butylbutanediamide], the IC50 on HIV protease (setting [2]) came out at 4 nM. In assay [1], the EC50 was 52 nM.
In the case of `CCC(CC)NC(=O)CC(C(=O)NC[C@@H](O)[C@H](Cc1ccccc1)NC(=O)[C@H](CC(N)=O)NC(=O)c1ccc2ccccc2n1)C(C)(C)C` (stereo partly drawn) [Entry 52], on HIV protease (setting [2]), the IC50 was 6 nM. For the same molecule, the EC50 in assay [1] was 130 nM.
`CCC(CC)NC(=O)C[C@@H](C(=O)NC[C@@H](O)[C@H](Cc1ccccc1)NC(=O)[C@@H](NC(=O)c1ccc2ccccc2n1)C(C)C)C(C)(C)C` [Entry 29]: on HIV protease, the IC50 is 3 nM. The EC50 in assay [1] came to 52 nM.
As to `Cc1cccc(C)c1NC(=O)C[C@@H](C(=O)NC[C@@H](O)[C@H](Cc1ccccc1)NC(=O)[C@@H](NC(=O)c1ccc2ccccc2n1)[C@@H](C)O)C(C)(C)C` [Entry 46], the IC50 at HIV protease (setting [2]) was determined as 2 nM. In addition, the EC50 in assay [1] was 30 nM.
For the molecule `CCC(CC)NC(=O)C[C@@H](C(=O)NC[C@@H](O)[C@H](Cc1ccccc1)NC(=O)[C@H](CC(N)=O)NC(=O)c1ccnc2ccccc12)C(C)(C)C` [Entry 15], the IC50 on HIV protease (setting [2]) turned out to be 9 nM. The EC50 in assay [1] was determined as 450 nM.
With `Cc1cccc(C)c1NC(=O)C[C@@H](C(=O)NC[C@@H](O)[C@H](Cc1ccccc1)NC(=O)COc1c(C)cccc1C)C(C)(C)C` [Entry 73], the IC50 at HIV protease (setting [2]) came to 2.6 nM. In addition, the EC50 in assay [1] turned out to be 620 nM.
Turning to `CC(C)c1cccc(C(C)C)c1NC(=O)C[C@@H](C(=O)NC[C@@H](O)[C@H](Cc1ccccc1)NC(=O)[C@@H](NC(=O)c1ccc2ccccc2n1)[C@@H](C)O)C(C)(C)C` [Entry 42], the IC50 at HIV protease (setting [2]) amounted to 19 nM. Also, in assay [1], the EC50 stood at 830 nM.
As for `CCC(CC)NC(=O)C[C@@H](C(=O)NC[C@@H](O)[C@H](Cc1ccccc1)NC(=O)[C@H](CC(N)=O)NC(=O)CCCc1ccccc1)C(C)(C)C` [Entry 21], the IC50 at HIV protease (setting [2]) amounted to 5 nM. In assay [1], the EC50 was 1100 nM.
Consider `CCC(CC)NC(=O)C[C@@H](C(=O)NC[C@@H](O)[C@H](Cc1ccccc1)NC(=O)[C@H](CO)NC(=O)c1ccc2ccccc2n1)C(C)(C)C` [Entry 6], for which the IC50 on HIV protease (setting [2]) is 27 nM. Besides, in assay [1], the EC50 was 420 nM.
For `CCC(CC)NC(=O)C[C@@H](C(=O)NC[C@@H](O)[C@H](Cc1ccccc1)NC(=O)c1ccccc1C)C(C)(C)C` [Entry 68], the IC50 on HIV protease (setting [2]) was 6.4 nM. Besides, in assay [1], the EC50 worked out at 375 nM.
The matching figures for `CCC(CC)NC(=O)C[C@@H](C(=O)NC[C@@H](O)[C@H](Cc1ccccc1)NC(=O)[C@H](CC(N)=O)NC(=O)c1cc2ccccc2cn1)C(C)(C)C` [Entry 18]: 5 nM and 220 nM.
For `CCC(CC)NC(=O)C[C@@H](C(=O)NC[C@@H](O)[C@H](Cc1ccccc1)NC(=O)[C@H](CC(N)=O)NC(=O)OCCc1ccccc1)C(C)(C)C` [Entry 40] the same measures were 4 nM and 570 nM.
Regarding `CCC(CC)NC(=O)C[C@@H](C(=O)NC[C@@H](O)[C@H](Cc1ccccc1)NC(=O)[C@H](CC(N)=O)NC(=O)C=Cc1ccccc1)C(C)(C)C` [Entry 17], the IC50 on HIV protease (setting [2]) turned out to be 7 nM. Further, the EC50 in assay [1] worked out at 1400 nM.
Regarding `CCC(CC)NC(=O)C[C@@H](C(=O)NC[C@@H](O)[C@H](Cc1ccccc1)NC(=O)[C@H](CC#N)NC(=O)c1ccc2ccccc2n1)C(C)(C)C` [Entry 37], the IC50 at HIV protease (setting [2]) was 3 nM. In addition, in assay [1], the EC50 worked out at 34 nM.
